In PMC6346292 (Chemical Science, 2018):

Columns and labels:
[1] = tested on: antithrombine III (AT-III); settings: cited from earlier work
IL-8 = molecular target: T1, IL-8 (Homo sapiens, UniProt P10145); test: FP competition assay; format: binding; settings: FP competition with probe 15 (table footnote)
T1 sequence (P10145 21-99): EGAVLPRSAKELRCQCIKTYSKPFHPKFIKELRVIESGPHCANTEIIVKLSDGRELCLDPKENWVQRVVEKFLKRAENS

Sclerostin = molecular target: T2, Sclerostin (Homo sapiens, UniProt Q9BQB4); test: FP competition assay; format: binding; settings: FP competition with probe 15 (table footnote)
T2 sequence (Q9BQB4 24-213): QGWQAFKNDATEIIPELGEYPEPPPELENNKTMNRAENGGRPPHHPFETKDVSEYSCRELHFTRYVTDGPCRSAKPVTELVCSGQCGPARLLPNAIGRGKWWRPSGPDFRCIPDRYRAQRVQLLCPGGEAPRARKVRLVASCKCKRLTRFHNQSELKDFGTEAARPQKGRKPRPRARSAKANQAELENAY

BMP-2 = molecular target: T3, BMP-2 (Homo sapiens, UniProt P12643); test: FP competition assay; format: binding; settings: FP competition with probe 15 (table footnote)
T3 sequence (P12643 283-396): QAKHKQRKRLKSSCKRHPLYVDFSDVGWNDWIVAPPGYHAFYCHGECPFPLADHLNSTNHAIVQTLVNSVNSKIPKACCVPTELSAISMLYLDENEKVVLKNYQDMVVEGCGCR

Kd (IL-8): 19 ± 2.5 µM
Kd (Sclerostin): 629 ± 335 µM
Kd (BMP-2): 80.9 ± 8.5 µM
SMILES: CO[C@H]1O[C@H](COS(=O)(=O)O)[C@@H](O[C@@H]2O[C@@H](C(=O)O)[C@@H](O[C@H]3O[C@H](COS(=O)(=O)O)[C@@H](O[C@@H]4O[C@H](C(=O)O)[C@@H](O[C@H]5O[C@H](COS(=O)(=O)O)[C@@H](O)[C@H](O)[C@H]5NS(=O)(=O)O)[C@H](O)[C@H]4O)[C@H](OS(=O)(=O)O)[C@H]3NS(=O)(=O)O)[C@H](O)[C@H]2OS(=O)(=O)O)[C@H](O)[C@H]1NS(=O)(=O)O [Fondaparinux, fondaparinux]
ligand affinity class [1]: nanomolar ligand
